According to the supplement of paper PMC10307832:

Key:
Test in all cases: relative viability (nuclei count vs DMSO), 5 days (fraction); higher = more cells survive
[1] = compound: O=C(CCCCCCC(=O)Nc1ccccc1)NO [Vorinostat] + CC(=O)Nc1cccc(-n2c(=O)n(C3CC3)c(=O)c3c(Nc4ccc(I)cc4F)n(C)c(=O)c(C)c32)c1 [Trametinib] (partner 0.02 µM)
In short: (§1)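 Lung cancer cell lines in 1536-well plates were dosed by pin tool the day after seeding, either with one drug alone or with a fixed anchor-drug dose plus five library-drug doses (not always all listed) in √10 steps. After 5 days, cells were fixed and their nuclei stained in one step (final 0.05% Triton X-100, 1% formaldehyde, 1 ug/ml Hoechst), then counted on 4× images. Relative viability is the nuclei count in treated wells divided by that in vehicle wells. Values are medians of duplicate plates.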

[2] = compound: O=C(CCCCCCC(=O)Nc1ccccc1)NO [Vorinostat] + CS(=O)(=O)CCNCc1ccc(-c2ccc3ncnc(Nc4ccc(OCc5cccc(F)c5)c(Cl)c4)c3c2)o1 [Lapatinib] (partner 2 µM)
In short: as §1

[3] = compound: O=C(CCCCCCC(=O)Nc1ccccc1)NO [Vorinostat] + Cc1nc(Nc2ncc(C(=O)Nc3c(C)cccc3Cl)s2)cc(N2CCN(CCO)CC2)n1 [Dasatinib] (partner 0.075 µM)
In short: as §1

[4] = compound: O=C(CCCCCCC(=O)Nc1ccccc1)NO [Vorinostat] + C[C@]1(O)C[C@@H](c2nc(-c3ccc4ccc(-c5ccccc5)nc4c3)c3c(N)nccn32)C1 [Linsitinib] (partner 1 µM)
In short: as §1

[5] = compound: O=C(CCCCCCC(=O)Nc1ccccc1)NO [Vorinostat] + COc1cc2c(Oc3ccc(NC(=O)C4(C(=O)Nc5ccc(F)cc5)CC4)cc3F)ccnc2cc1OCCCN1CCOCC1 [Foretinib] (partner 0.25 µM)
In short: as §1

Cell Line	relative viability ([1]; first compound 0.253 µM)	relative viability ([1]; first compound 0.8 µM)	relative viability ([1]; first compound 2.53 µM)	relative viability ([1]; first compound 8 µM)	relative viability ([2]; first compound 0.253 µM)	relative viability ([2]; first compound 0.8 µM)	relative viability ([2]; first compound 2.53 µM)	relative viability ([2]; first compound 8 µM)	relative viability ([3]; first compound 0.253 µM)	relative viability ([3]; first compound 0.8 µM)	relative viability ([3]; first compound 2.53 µM)	relative viability ([3]; first compound 8 µM)	relative viability ([4]; first compound 0.253 µM)	relative viability ([4]; first compound 0.8 µM)	relative viability ([4]; first compound 2.53 µM)	relative viability ([4]; first compound 8 µM)	relative viability ([5]; first compound 0.253 µM)	relative viability ([5]; first compound 0.8 µM)	relative viability ([5]; first compound 2.53 µM)	relative viability ([5]; first compound 8 µM)
H3255	0.819	0.709	0.576	0.227	0.24	0.17	0.141	0.101	0.396	0.342	0.309	0.301	1.01	0.941	0.589	0.247	0.859	0.868	0.812	0.223
NCI-H838	0.631	0.481	0.279	0.112	1.44	0.863	0.425	0.148	0.378	0.442	0.368	0.186	1.19	1.08	0.459	0.172	1.33	1.05	0.51	0.173
EMC-BAC-2	0.836	0.687	0.292	0.154	1.04	0.871	0.405	0.149	0.311	0.204	0.169	0.108	0.977	0.866	0.47	0.134	1.02	0.977	0.4	0.172
NCI-H1793	0.383	0.34	0.3	0.182	0.588	0.613	0.375	0.162	0.491	0.433	0.351	0.135	0.781	0.95	0.703	0.215	1.03	0.679	0.257	0.204
NCI-H441	0.555	0.602	0.226	0.127					0.846	0.557	0.285	0.138	0.501	0.619	0.255	0.117	0.874	0.971	0.59	0.175
NCI-H3122	0.168	0.265	0.298	0.118	1.03	0.981	0.939	0.167	1.11	0.69	0.0421	0.0399	1.12	1.05	0.605	0.142	1.04	1.05	0.242	0.0563
NCI-H1651	0.869	0.76	0.343	0.062	1.07	0.532	0.108	0.0671	0.415	0.195	0.0466	0.0608	1.01	0.762	0.0741	0.0616	0.879	0.791	0.228	0.0797
NCI-H1734	0.721	0.713	0.5	0.117	1.33	0.993	0.678	0.162	0.608	0.624	0.39	0.111	0.982	0.856	0.658	0.133	0.944	0.917	0.526	0.176
ABC-1					1.14	1.12	1.13	0.27	0.531	0.41	0.221	0.131	1	0.505	0.331	0.106	1.07	0.834	0.358	0.102
SK-LU-1	0.495	0.474	0.41	0.205	1.05	0.738	0.449	0.16	0.192	0.208	0.133	0.0924	1.11	1.02	0.64	0.211	0.881	0.829	0.385	0.137
NCI-H322M	0.595	0.501	0.552	0.408	0.733	0.608	0.522	0.352	0.286	0.268	0.255	0.264	1.04	1.01	0.51	0.275	1.1	0.925	0.428	0.309
NCI-H1355	0.484	0.331	0.231	0.131	1.02	0.792	0.693	0.157	0.825	0.503	0.298	0.169	0.917	0.707	0.451	0.139	1.05	1.01	0.562	0.156
EPLC-272H	0.296	0.269	0.168	0.11	0.788	0.761	0.278	0.14	0.428	0.494	0.151	0.0935	1.17	1.13	0.361	0.156	0.581	0.512	0.0722	0.133
A-427	0.82	0.718	0.361	0.166	1.1	1.05	0.929	0.23	0.823	0.565	0.332	0.133	1.11	1.08	0.875	0.17	1.21	1.13	0.561	0.191
BEN	0.928	0.659	0.367	0.149	0.819	0.379	0.151	0.0751	0.306	0.233	0.157	0.06	0.985	0.543	0.156	0.0466	0.8	0.414	0.149	0.0734
LCLC-103H	0.804	0.7	0.473	0.337					0.504	0.533	0.339	0.134	1.18	0.999	0.597	0.172	0.924	0.801	0.243	0.135
EKVX	0.401	0.337	0.18	0.115	0.217	0.209	0.173	0.107	0.535	0.528	0.236	0.179	1.14	1.04	0.515	0.141	0.859	0.931	0.714	0.138
SW 900	0.739	0.703	0.249	0.129					0.679	0.739	0.249	0.118					0.925	0.927	0.644	0.111

Cell Line	relative viability ([1]; first compound 0.253 µM)	relative viability ([1]; first compound 0.8 µM)	relative viability ([1]; first compound 2.53 µM)	relative viability ([1]; first compound 8 µM)	relative viability ([2]; first compound 0.253 µM)	relative viability ([2]; first compound 0.8 µM)	relative viability ([2]; first compound 2.53 µM)	relative viability ([2]; first compound 8 µM)	relative viability ([3]; first compound 0.253 µM)	relative viability ([3]; first compound 0.8 µM)	relative viability ([3]; first compound 2.53 µM)	relative viability ([3]; first compound 8 µM)	relative viability ([4]; first compound 0.253 µM)	relative viability ([4]; first compound 0.8 µM)	relative viability ([4]; first compound 2.53 µM)	relative viability ([4]; first compound 8 µM)	relative viability ([5]; first compound 0.253 µM)	relative viability ([5]; first compound 0.8 µM)	relative viability ([5]; first compound 2.53 µM)	relative viability ([5]; first compound 8 µM)
NCI-H2342	0.703	0.774	0.685	0.484					0.304	0.315	0.274	0.28					0.975	1.07	0.587	0.385
LU99A	0.614	0.54	0.33	0.138	1.01	0.871	0.315	0.169	0.607	0.591	0.242	0.172	0.429	0.465	0.27	0.117	0.81	0.692	0.319	0.222
SK-MES-1	0.728	0.71	0.454	0.239	0.504	0.438	0.433	0.187	0.566	0.657	0.197	0.148	1.09	1.02	0.495	0.21	1.14	1.04	0.778	0.249
NCI-H2023	0.65	0.422	0.184	0.07	1.01	0.597	0.186	0.0723	0.872	0.49	0.134	0.061	0.841	0.682	0.296	0.0892	1.13	0.82	0.31	0.0629
NCI-H596	0.876	0.632	0.426	0.235	1.26	0.971	0.781	0.307	0.634	0.448	0.385	0.202	1.02	1.04	0.677	0.335	0.847	0.715	0.53	0.22
NCI-H2009	0.336	0.311	0.237	0.119	1.06	0.503	0.329	0.133	0.466	0.454	0.168	0.082	1.27	1.07	0.707	0.177	1.28	1.22	0.716	0.143
SW 1573	0.709	0.596	0.357	0.0536	1.17	1.07	0.824	0.133	0.593	0.789	0.112	0.0513	0.986	0.978	0.421	0.13	1.29	1.07	0.75	0.15
NCI-H460	0.231	0.0799	0.0298	0.0227	1.35	0.742	0.0269	0.0111	0.577	0.423	0.134	0.0239	0.902	0.544	0.0315	0.0069	1.09	0.927	0.0567	0.0329
NCI-H1703					1.64	1.49	1.02	0.247					1.14	0.846	0.953	0.206	0.418	0.599	0.632	0.277
HCC-366	0.412	0.333	0.062	0.0267	1.16	0.741	0.0772	0.0322	0.805	0.426	0.102	0.0346	0.637	0.545	0.0527	0.0206	1.03	0.333	0.0524	0.0624
NCI-H1650	0.609	0.542	0.175	0.0883	0.803	0.484	0.287	0.118	0.397	0.292	0.201	0.141					1.1	1	0.648	0.14
NCI-H1563					1.01	0.796	0.403	0.564	0.411	0.458	0.448	0.385	1.19	1.03	0.749	0.525	0.999	0.833	0.574	0.52
NCI-H522	0.93	0.706	0.707	0.263					0.895	0.99	0.344	0.239								
NCI-H2170	0.926	0.921	0.578	0.108	0.283	0.273	0.238	0.198	0.68	0.459	0.355	0.14					0.982	1.04	0.675	0.526
NCI-H1792	0.292	0.257	0.145	0.0464	0.964	0.904	0.907	0.0753	0.866	0.921	0.402	0.126	0.57	0.376	0.148	0.0672				
A549					1.02	0.572	0.168	0.0602					0.673	0.651	0.194	0.0382	0.929	0.478	0.0393	0.0151
HCC-44	1.11	0.968	0.91	0.286	1.03	0.985	0.508	0.111					0.727	0.621	0.167	0.103				
ChaGo-K-1	0.973	0.792	0.5	0.193					0.656	0.568	0.444	0.246					1	0.863	0.559	0.189
